In PubChem BioAssay AID1963448 (Molecular Pharmacology Branch, DTP, NCI, 2024):
Each block holds one compound with its values, some of them ahead of it.

System: 616215-338-R-J1-PDC complex spheroid growth, % test/control
Assay: Anticancer human tumor 616215-338-R-J1-PDC patient-derived colon adenocarcinoma cell line growth inhibition [Asc]
Conditions: for IC50: curve of first compound; for viability, T/C: stronger effect = lower value
Method in brief: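 Spheroid model: tumor line + HUVEC + hMSC. Single agents and combinations; top conc. at/near clinical Cmax (10 microM if undetermined), half-log dilutions. DMSO stocks at 800-fold test concentration.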

[1] = second compound 0.00316 µM, first compound 0.0316 µM
[2] = second compound 0.00316 µM, first compound 0.1 µM
[3] = second compound 0.00316 µM, first compound 0.316 µM
[4] = second compound 0.00316 µM, first compound 1 µM
[5] = second compound 0.01 µM, first compound 0.0316 µM
[6] = second compound 0.01 µM, first compound 0.1 µM
[7] = second compound 0.01 µM, first compound 0.316 µM
[8] = second compound 0.01 µM, first compound 1 µM
[9] = second compound 0.0316 µM, first compound 0.0316 µM
[10] = second compound 0.0316 µM, first compound 0.1 µM
[11] = second compound 0.0316 µM, first compound 0.316 µM
[12] = second compound 0.0316 µM, first compound 1 µM
[13] = second compound 0.1 µM, first compound 0.0316 µM
[14] = second compound 0.1 µM, first compound 0.1 µM
[15] = second compound 0.1 µM, first compound 0.316 µM
[16] = second compound 0.1 µM, first compound 1 µM
[17] = second compound 0.316 µM, first compound 0.0316 µM
[18] = second compound 0.316 µM, first compound 0.1 µM
[19] = second compound 0.316 µM, first compound 0.316 µM
[20] = second compound 0.316 µM, first compound 1 µM
[21] = second compound 1 µM, first compound 0.0316 µM
[22] = second compound 1 µM, first compound 0.1 µM
[23] = second compound 1 µM, first compound 0.316 µM
[24] = second compound 1 µM, first compound 1 µM
[25] = second compound 0.00316 µM, first compound 0.00316 µM
[26] = second compound 0.00316 µM, first compound 0.01 µM
[27] = second compound 0.01 µM, first compound 0.00316 µM
[28] = second compound 0.01 µM, first compound 0.01 µM
[29] = second compound 0.0316 µM, first compound 0.00316 µM
[30] = second compound 0.0316 µM, first compound 0.01 µM
[31] = second compound 0.1 µM, first compound 0.00316 µM
[32] = second compound 0.1 µM, first compound 0.01 µM
[33] = second compound 0.316 µM, first compound 0.00316 µM
[34] = second compound 0.316 µM, first compound 0.01 µM
[35] = second compound 1 µM, first compound 0.00316 µM
[36] = second compound 1 µM, first compound 0.01 µM
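Further: spheroids exposed to agents for seven days before readout.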
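Wherever viability, T/C is given: 100% = DMSO vehicle control viability.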

IC50 (second compound 0.00316 µM): 4240 nM
IC50 (second compound 0.01 µM): 2680 nM
IC50 (second compound 0.0316 µM): 4240 nM
IC50 (second compound 0.1 µM): 3320 nM
IC50 (second compound 0.316 µM): 2220 nM
IC50 (second compound 1 µM): 3250 nM
Structure (SMILES): C=CC(=O)N1CCN(c2nc(=O)n(-c3c(C)ccnc3C(C)C)c3nc(-c4c(O)cccc4F)c(F)cc23)C(C)C1 (stereo unspecified) + CNC(C)C(=O)NC1CN(S(=O)(=O)c2cccc(S(=O)(=O)N3CCC4CCC(C(=O)NC(c5ccccc5)c5ccccc5)N4C(=O)C(NC(=O)C(C)NC)C3)c2)CCC2CCC(C(=O)NC(c3ccccc3)c3ccccc3)N2C1=O
viability, T/C [1]: 109%
viability, T/C [2]: 99.2%
viability, T/C [3]: 88%
viability, T/C [4]: 78.2%
viability, T/C (second compound 0.00316 µM, first compound 3.16 µM): 58%
viability, T/C (second compound 0.00316 µM, first compound 10 µM): 29.4%
viability, T/C [5]: 110%
viability, T/C [6]: 93.2%
viability, T/C [7]: 95.5%
viability, T/C [8]: 66.7%
viability, T/C (second compound 0.01 µM, first compound 3.16 µM): 47.3%
viability, T/C (second compound 0.01 µM, first compound 10 µM): 27.8%
viability, T/C [9]: 106%
viability, T/C [10]: 101%
viability, T/C [11]: 96%
viability, T/C [12]: 76.9%
viability, T/C (second compound 0.0316 µM, first compound 3.16 µM): 58.1%
viability, T/C (second compound 0.0316 µM, first compound 10 µM): 29.2%
viability, T/C [13]: 95.8%
viability, T/C [14]: 101%
viability, T/C [15]: 81.5%
viability, T/C [16]: 81.1%
viability, T/C (second compound 0.1 µM, first compound 3.16 µM): 48.6%
viability, T/C (second compound 0.1 µM, first compound 10 µM): 28.8%
viability, T/C [17]: 92.6%
viability, T/C [18]: 105%
viability, T/C [19]: 104%
viability, T/C [20]: 61.8%
viability, T/C (second compound 0.316 µM, first compound 3.16 µM): 53%
viability, T/C (second compound 0.316 µM, first compound 10 µM): 36.4%
viability, T/C [21]: 104%
viability, T/C [22]: 100%
viability, T/C [23]: 100%
viability, T/C [24]: 68.6%
viability, T/C (second compound 1 µM, first compound 3.16 µM): 54.6%
viability, T/C (second compound 1 µM, first compound 10 µM): 28.9%

IC50 (second compound 0.00316 µM): 53.3 nM
IC50 (second compound 0.01 µM): 54.9 nM
IC50 (second compound 0.0316 µM): 47 nM
IC50 (second compound 0.1 µM): 46.4 nM
IC50 (second compound 0.316 µM): 52.4 nM
IC50 (second compound 1 µM): 40.3 nM
Structure (SMILES): COc1c(OCCCN2CCOCC2)ccc2c3n(c(=NC(=O)c4cnc(N)nc4)nc12)CCN3 + CNC(C)C(=O)NC1CN(S(=O)(=O)c2cccc(S(=O)(=O)N3CCC4CCC(C(=O)NC(c5ccccc5)c5ccccc5)N4C(=O)C(NC(=O)C(C)NC)C3)c2)CCC2CCC(C(=O)NC(c3ccccc3)c3ccccc3)N2C1=O
viability, T/C [25]: 107%
viability, T/C [26]: 83.5%
viability, T/C [1]: 68.8%
viability, T/C [2]: 30.4%
viability, T/C [3]: 14.9%
viability, T/C [4]: 2.9%
viability, T/C [27]: 98.6%
viability, T/C [28]: 101%
viability, T/C [5]: 64%
viability, T/C [6]: 32.5%
viability, T/C [7]: 9.38%
viability, T/C [8]: 2.23%
viability, T/C [29]: 94.1%
viability, T/C [30]: 97.8%
viability, T/C [9]: 59.5%
viability, T/C [10]: 26.1%
viability, T/C [11]: 14.3%
viability, T/C [12]: 1.77%
viability, T/C [31]: 101%
viability, T/C [32]: 92.4%
viability, T/C [13]: 56.7%
viability, T/C [14]: 30.4%
viability, T/C [15]: 14.1%
viability, T/C [16]: 1.87%
viability, T/C [33]: 93.4%
viability, T/C [34]: 97.8%
viability, T/C [17]: 65.1%
viability, T/C [18]: 27.7%
viability, T/C [19]: 15.3%
viability, T/C [20]: 3.07%
viability, T/C [35]: 87.4%
viability, T/C [36]: 89.4%
viability, T/C [21]: 52.8%
viability, T/C [22]: 26.8%
viability, T/C [23]: 16.8%
viability, T/C [24]: 6.17%

IC50 (second compound 0.00316 µM): > 100 nM
IC50 (second compound 0.01 µM): > 100 nM
IC50 (second compound 0.0316 µM): > 100 nM
IC50 (second compound 0.1 µM): > 100 nM
IC50 (second compound 0.316 µM): > 100 nM
IC50 (second compound 1 µM): > 100 nM
Structure (SMILES): NC1CCC(NC2CC2c2ccccc2)CC1 (stereo unspecified) + CNC(C)C(=O)NC1CN(S(=O)(=O)c2cccc(S(=O)(=O)N3CCC4CCC(C(=O)NC(c5ccccc5)c5ccccc5)N4C(=O)C(NC(=O)C(C)NC)C3)c2)CCC2CCC(C(=O)NC(c3ccccc3)c3ccccc3)N2C1=O
viability, T/C (second compound 0.00316 µM, first compound 0.000316 µM): 101%
viability, T/C (second compound 0.00316 µM, first compound 0.001 µM): 94.2%
viability, T/C [25]: 73.6%
viability, T/C [26]: 93.9%
viability, T/C [1]: 103%
viability, T/C [2]: 91%
viability, T/C (second compound 0.01 µM, first compound 0.000316 µM): 96.7%
viability, T/C (second compound 0.01 µM, first compound 0.001 µM): 93.9%
viability, T/C [27]: 95.7%
viability, T/C [28]: 100%
viability, T/C [5]: 95.2%
viability, T/C [6]: 98%
viability, T/C (second compound 0.0316 µM, first compound 0.000316 µM): 92%
viability, T/C (second compound 0.0316 µM, first compound 0.001 µM): 89.8%
viability, T/C [29]: 89.9%
viability, T/C [30]: 82.8%
viability, T/C [9]: 96.1%
viability, T/C [10]: 95.3%
viability, T/C (second compound 0.1 µM, first compound 0.000316 µM): 100%
viability, T/C (second compound 0.1 µM, first compound 0.001 µM): 87%
viability, T/C [31]: 92.2%
viability, T/C [32]: 99%
viability, T/C [13]: 98.7%
viability, T/C [14]: 89.8%
viability, T/C (second compound 0.316 µM, first compound 0.000316 µM): 103%
viability, T/C (second compound 0.316 µM, first compound 0.001 µM): 94.2%
viability, T/C [33]: 88.4%
viability, T/C [34]: 97.5%
viability, T/C [17]: 102%
viability, T/C [18]: 90.7%
viability, T/C (second compound 1 µM, first compound 0.000316 µM): 103%
viability, T/C (second compound 1 µM, first compound 0.001 µM): 91%
viability, T/C [35]: 95.4%
viability, T/C [36]: 72.9%
viability, T/C [21]: 98.5%
viability, T/C [22]: 84.7%
